The values that follow come from BindingDB's records for patent US20250313563 (The Broad Institute, 2025).

Several values for one entry are separate records, joined by “and”; a condition that tells them apart may be missing. Equal entries are not always repeated. Where only a bound is given, the exact number is not on record here.

The target in assay [1] is Glycogen synthase kinase-3 alpha (Homo sapiens, UniProt P49840). The experiment in a line: TR-FRET Assay. Put shortly:
(§1)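 Enzyme and test compound were first incubated together for 30 minutes in assay buffer. The kinase reaction followed and was stopped with EDTA. The pSer641 signal was read by time-resolved FRET.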
(In TR-FRET formats the signal depends on donor and acceptor labels being close together.)

Assay [2] addresses Glycogen synthase kinase-3 beta (Homo sapiens, UniProt P49841). The experiment in a line: TR-FRET Assay. Put shortly: as §1

Chain of Glycogen synthase kinase-3 beta (P49841 whole entry): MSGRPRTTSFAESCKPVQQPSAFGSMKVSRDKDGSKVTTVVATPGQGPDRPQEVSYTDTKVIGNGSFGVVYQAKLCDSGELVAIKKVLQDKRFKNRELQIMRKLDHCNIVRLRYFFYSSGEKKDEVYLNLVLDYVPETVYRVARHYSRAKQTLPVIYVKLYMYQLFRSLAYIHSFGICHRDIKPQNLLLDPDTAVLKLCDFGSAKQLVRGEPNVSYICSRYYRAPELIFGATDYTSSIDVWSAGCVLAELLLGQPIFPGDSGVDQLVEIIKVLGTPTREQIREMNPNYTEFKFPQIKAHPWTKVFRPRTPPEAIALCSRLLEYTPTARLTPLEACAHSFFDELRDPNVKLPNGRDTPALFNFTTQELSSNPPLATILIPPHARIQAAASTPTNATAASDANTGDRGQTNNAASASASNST
Chain of Glycogen synthase kinase-3 alpha (P49840 whole entry): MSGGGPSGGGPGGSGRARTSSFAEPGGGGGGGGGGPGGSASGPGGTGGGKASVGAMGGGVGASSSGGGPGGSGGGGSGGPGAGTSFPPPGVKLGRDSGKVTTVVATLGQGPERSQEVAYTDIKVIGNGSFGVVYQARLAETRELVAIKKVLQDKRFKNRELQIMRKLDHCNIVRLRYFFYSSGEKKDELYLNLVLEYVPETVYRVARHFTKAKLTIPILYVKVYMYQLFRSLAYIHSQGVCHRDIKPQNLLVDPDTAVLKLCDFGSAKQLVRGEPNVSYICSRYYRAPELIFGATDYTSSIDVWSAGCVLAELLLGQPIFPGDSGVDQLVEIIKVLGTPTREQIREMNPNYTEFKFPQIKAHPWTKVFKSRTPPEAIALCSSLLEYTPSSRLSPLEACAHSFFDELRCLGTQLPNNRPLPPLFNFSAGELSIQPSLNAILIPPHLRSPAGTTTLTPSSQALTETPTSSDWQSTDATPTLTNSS

Turning to `CC[C@]1(c2ccccc2)C2=C(N=NC2)NC2=C1C(=O)[C@H]1CC[C@@H]2C1` [US20250313563, Compound 791268], the IC50 in assay [1] and in assay [2] was over 5 µM in each case.
As to `CC[C@]1(c2cccc(-c3cnn(-c4ccccc4)c3F)c2)C2=CN=NC2NC2=C1C(=O)NC(C)(C)C2` (some centres not stated) [US20250313563, Compound 949519], the IC50 in assay [1] and in assay [2] was over 5 µM in each case.
In the case of `CC[C@]1(c2cccc(-c3ccncc3C(F)(F)F)c2)C2=CN=NC2NC2=C1C(=O)CC(C)(C)C2` (some centres not stated) [US20250313563, Compound 943918], the IC50 (in general, the point on the concentration scale where inhibition reaches its midpoint) in assay [1] was 0.1 to 1 µM; in assay [2], 1 to 5 µM.
`CC[C@]1(c2cccc(-c3ccnc4ccc(Cl)cc34)c2)C2=CN=NC2NC2=C1C(=O)NC(C)(C)C2` (some centres not stated) [US20250313563, Compound 948530]: the IC50 in assay [1] was 0.1 to 1 µM; in assay [2], 1 to 5 µM.
For `CO[C@H]1C[C@]2(C1)C1=C(N=NC1)NC1=C2C(=O)CC(C)(C)C1` [US20250313563, Compound 901472] the same measures were over 5 µM and over 5 µM.
The matching figures for `CC1(C)CC(=O)C2=C(C1)NC1=C(CN=N1)C21COC2(CN(C(=O)C3CCCCCC3)C2)C1` (configuration not stated) [US20250313563, Compound 947308]: under 0.1 µM and 0.1 to 1 µM.
Consider `CC[C@@]1(c2cccc(C(F)(F)F)c2)C2=CN=NC2NC2=C1C(=O)N[C@@H](c1ccccc1)C2` (some centres not stated) [US20250313563, Compound 945364], for which the half-maximal inhibitory concentration (IC50) in assay [1] and in assay [2] was over 5 µM in each case.
For the compound `CC[C@@]1(c2ccc(C)cc2)C2=CN=NC2NC2=C1C(=O)CC(C)(C)C2` (some centres not stated) [US20250313563, Compound 789458], the IC50 in assay [1] and in assay [2] was over 5 µM each time.
On to `CC[C@]1(c2ccccc2)C2=CN=NC2NC2=C1C(=O)[C@@H](C)C[C@@H]2C` (some centres not stated) [US20250313563, Compound 865202], for which the IC50 in assay [1] and in assay [2] was over 5 µM each time.
For the compound `CC[C@]1(c2cccc(-c3ccncc3)c2)C2=C(CC(C)(C)CC2=O)NC2N=NC(C(F)(F)F)=C21` (some centres not stated) [US20250313563, Compound 917293], the 50% inhibitory concentration (IC50) in assay [1] and in assay [2] was under 0.1 µM throughout.
With `CC1(C)CC2=C(C(=O)N1)C1(CCN(S(=O)(=O)c3cnn(C(C)(C)C)c3)CC1)C1=C(N=NC1)N2` [US20250313563, Compound 947835], the concentration for half-maximal inhibition (IC50) in assay [1] is under 0.1 µM; in assay [2] it was 0.1 to 1 µM.
The matching figures for `CC1(C)CC(=O)C2=C(C1)NC1N=NC=C1[C@@]21CCCc2c(-c3ccncc3)cccc21` (some centres not stated) [US20250313563, Compound 945547]: 1 to 5 µM and over 5 µM.
Consider `CC[C@@]1(c2cccc(-c3cc(C)ncc3F)c2)C2=C(CC(C)(C)NC2=O)NC2N=NC(C(F)(F)F)=C21` (some centres not stated) [US20250313563, Compound 949650], for which the half-maximal inhibitory concentration (IC50) was < 0.1 µM and 0.1 to 1 µM in assay [1]; < 0.1 µM and 1 to 5 µM in assay [2].
`COc1ccccc1S(=O)(=O)N1CCC2(CC1)C1=C(N=NC1)NC1=C2C(=O)CC(C)(C)C1` [US20250313563, Compound 893310]: the IC50 in assay [1] is under 0.1 µM; in assay [2], < 0.1 µM and 0.1 to 1 µM.
For the compound `CCC1(c2cccc(N(C)c3ccnc(F)c3)c2)C2=CN=NC2NC2=C1C(=O)CC(C)(C)C2` (configuration not stated) [US20250313563, Compound 917146], the IC50 in assay [1] and in assay [2] was under 0.1 µM throughout.
Turning to `CC[C@]1(c2cccc(C3=CNN4CC=CN=C34)c2)C2=CN=NC2NC2=C1C(=O)NC(C)(C)C2` (some centres not stated) [US20250313563, Compound 949389], the concentration for half-maximal inhibition (IC50) in assay [1] is 1 to 5 µM; in assay [2] it was over 5 µM.
In the case of `CCC1(c2cccc(-c3ccnc4c3CCC4)c2)C2=CN=NC2NC2=C1C(=O)CC(C)(C)C2` (configuration not stated) [US20250313563, Compound 943534], the 50% inhibitory concentration (IC50) in assay [1] and in assay [2] was under 0.1 µM each time.
In the case of `C[C@H]1CCC[C@]2(C1)C1=C(N=NC1)NC1=C2C(=O)CC(C)(C)C1` [US20250313563, Compound 893319], the half-maximal inhibitory concentration (IC50) in assay [1] and in assay [2] was 0.1 to 1 µM in each case.
Turning to `C[C@@H]1CCC[C@]2(C1)C1=C(N=NC1)NC1=C2C(=O)CC(C)(C)C1` [US20250313563, Compound 874537], the IC50 in assay [1] and in assay [2] was 0.1 to 1 µM throughout.
`CCC1(c2cccc(-c3cnn(C4CC4)c3)c2)C2=C(CC(C)(C)CC2=O)NC2N=NC(C)=C21` (configuration not stated) [US20250313563, Compound 883997]: the half-maximal inhibitory concentration (IC50) in assay [1] is under 0.1 µM; in assay [2], 0.1 to 1 µM.
For `Cc1cc(S(=O)(=O)N2CCC3(CC2)C2=C(N=NC2)NC2=C3C(=O)CC(C)(C)C2)cc(C)n1` [US20250313563, Compound 947616], the half-maximal inhibitory concentration (IC50) in assay [1] is < 0.1 µM and 0.1 to 1 µM; in assay [2] it was < 0.1 µM and 1 to 5 µM.
`CC1(C)CC(=O)C2=C(C1)NC1=C(CN=N1)[C@]21CCN(S(=O)(=O)c2ccccc2)C1` [US20250313563, Compound 943485]: the IC50 in assay [1] is < 0.1 µM and 0.1 to 1 µM; in assay [2], < 0.1 µM and 1 to 5 µM.
As to `CC[C@@]1(c2ccccc2)C2=CN=NC2NC2=C1C(=O)C[C@]1(CCOC1)C2` (some centres not stated) [US20250313563, Compound 816881], the half-maximal inhibitory concentration (IC50) in assay [1] is 0.1 to 1 µM; in assay [2], 1 to 5 µM.
The matching figures for `CCC1(c2cccc(-c3ccnc(C)c3C)c2)C2=CN=NC2NC2=C1C(=O)NC(C)(C)C2` (configuration not stated) [US20250313563, Compound 945994]: under 0.1 µM and 0.1 to 1 µM.
As to `CC1(C)CC(=O)C2=C(C1)NC1=C(CN=N1)C21CCN(S(=O)(=O)c2cc(Cl)ccc2Cl)CC1` [US20250313563, Compound 948122], the IC50 in assay [1] is under 0.1 µM; in assay [2] it was 0.1 to 1 µM.
For `CC[C@@]1(c2cccc(C(F)(F)F)c2)C2=C(NC3=NN=CC31)c1ccccc1C2=O` (some centres not stated) [US20250313563, Compound 949742], the IC50 in assay [1] and in assay [2] was 0.1 to 1 µM throughout.
Turning to `CC1(C)CC(=O)C2=C(C1)NC1=C(CN=N1)[C@]21COC2(CN(C(=O)C(C)(F)F)C2)C1` [US20250313563, Compound 947838], the IC50 in assay [1] and in assay [2] was under 0.1 µM in each case.
As to `CC[C@]1(c2ccccc2)C2=CN=NC2NC2=C1C(=O)[C@@H](C)C[C@H]2C` (some centres not stated) [US20250313563, Compound 909219], the IC50 in assay [1] and in assay [2] was over 5 µM throughout.
For the compound `CCC1(c2cccc(C(F)(F)F)c2)C2=CN=NC2NC2=C1C(=O)NC1(CCC1)C2` (configuration not stated) [US20250313563, Compound 902202], the IC50 in assay [1] and in assay [2] was under 0.1 µM throughout.
`CC1(C)CC(=O)C2=C(C1)NC1=C(CN=N1)C21CCC(c2ccccc2)CC1` (configuration not stated) [US20250313563, Compound 874975]: the IC50 in assay [1] and in assay [2] was under 0.1 µM throughout.
In the case of `CN1CCCC2(CC1)C1=C(N=NC1)NC1=C2C(=O)CC(C)(C)C1` (configuration not stated) [US20250313563, Compound 893313], the IC50 in assay [1] and in assay [2] was over 5 µM throughout.
In the case of `CC[C@]1(c2ccccc2)C2=C(N=NC2)NC2=C1C(=O)[C@@H]1CC[C@H]2C1` [US20250313563, Compound 791270], the IC50 in assay [1] was 0.1 to 1 µM; in assay [2], over 1.7 µM.
For `CC[C@]1(c2cccc(-c3cc(C)nc(C)c3)c2)C2=CN=NC2NC2=C1C(=O)CC(C)(C)C2` (some centres not stated) [US20250313563, Compound 913222], the values for the IC50 in assay [1] and in assay [2] were under 0.1 µM and 0.1 to 1 µM, respectively.
Consider `CCC1(c2cccc(-c3ccnc(CO)c3)c2)C2=CN=NC2NC2=C1C(=O)CC(C)(C)C2` (configuration not stated) [US20250313563, Compound 943540], for which the IC50 is under 0.1 µM in assay [1] and 0.1 to 1 µM in assay [2].
`CC1(C)CC(=O)C2=C(C1)NC1=C(CN=N1)[C@@]21CC[C@@H](C(F)(F)F)C1` [US20250313563, Compound 952436]: the IC50 is < 0.1 µM and 1 to 5 µM in assay [1]; < 0.1 µM and 1 to 5 µM in assay [2].
As for `CCc1cc(-c2cccc(C3(CC)C4=CN=NC4NC4=C3C(=O)CC(C)(C)C4)c2)cc(CC)n1` (configuration not stated) [US20250313563, Compound 929445], the IC50 in assay [1] is 1 to 5 µM; in assay [2] it was over 5 µM.
`CC[C@]1(c2cccc(N(C)c3ncccn3)c2)C2=CN=NC2NC2=C1C(=O)NC(C)(C)C2` (some centres not stated) [US20250313563, Compound 943964]: the IC50 is < 0.1 µM and 0.1 to 1 µM in assay [1]; < 0.1 µM and 1 to 5 µM in assay [2].
Take `CC1N=NC2=C1C1(CC3(CCC3)C1)C1=C(CC(C)(C)CC1=O)N2` (configuration not stated) [US20250313563, Compound 877295]: the 50% inhibitory concentration (IC50) in assay [1] and in assay [2] was over 5 µM in each case.
As to `CC1(C)CC(=O)C2=C(C1)NC1=C(CN=N1)C21CCC(C(F)(F)F)CC1` (configuration not stated) [US20250313563, Compound 865193], the IC50 in assay [1] was < 0.1 µM and 0.1 to 1 µM; in assay [2], < 0.1 µM and 1 to 5 µM.
Consider `CCC1(c2cccc(Cl)c2)C2=C(CC(C)(C)CC2=O)NC2N=NC(Br)=C21` (configuration not stated) [US20250313563, Compound 789564], for which the concentration for half-maximal inhibition (IC50) in assay [1] and in assay [2] was under 0.1 µM throughout.
Turning to `CC[C@@]1(c2cccc(-c3ccnc(C)c3)c2)C2=C(CC(C)(C)CC2=O)NC2N=NC(C)=C21` (some centres not stated) [US20250313563, Compound 913018], the figures for the IC50 in assay [1] and in assay [2] were 0.1 to 1 µM and 1 to 5 µM, respectively.
As for `CC[C@]1(c2cccc(N(C)c3ncccn3)c2)C2=C(CC(C)(C)NC2=O)NC2N=NC(C(F)(F)F)=C21` (some centres not stated) [US20250313563, Compound 949180], the IC50 in assay [1] was under 0.1 µM; in assay [2] it was 0.1 to 1 µM.
With `CC[C@@]1(c2cccc(-c3ccnc(C)c3F)c2)C2=C(CC(C)(C)CC2=O)NC2N=NC(C)=C21` (some centres not stated) [US20250313563, Compound 927340], the IC50 in assay [1] and in assay [2] was over 5 µM in each case.
On to `CCC1(c2cccc(-c3ccnc(OC(C)C)c3)c2)C2=CN=NC2NC2=C1C(=O)CC(C)(C)C2` (configuration not stated) [US20250313563, Compound 932626], for which the IC50 in assay [1] and in assay [2] was 0.1 to 1 µM each time.
As to `CC1(C)CC(=O)C2=C(C1)NC1=C(CN=N1)[C@]21CC[C@@H](C(F)(F)F)C1` [US20250313563, Compound 952437], the IC50 in assay [1] and in assay [2] was 0.1 to 1 µM in each case.
Turning to `CC[C@]1(c2cccc(C3CN(C(C)=O)C3)c2)C2=CN=NC2NC2=C1C(=O)CC(C)(C)C2` (some centres not stated) [US20250313563, Compound 949131], the IC50 lay in the range of 0.1 to 1 µM in assay [1] and 1 to 5 µM in assay [2].
